Results taken from patent US20150258129A1, “Method for Increasing the Activity of Lysosomal Enzymes” (Mount Sinai School of Medicine of New York University, priority 1998, published 2015).

How the values were obtained:
[1] = biological target: T1, glucocerebrosidase (β-Glu), N370S/N370S (Homo sapiens, UniProt P04062, N409S); test: Intracellular enhancement of β-Glu activity in Gaucher fibroblasts (N370S/N370S); assay type: cell-based
T1 construct: endogenous in cells; host or cells: human Gaucher patient fibroblasts, genotype N370S/N370S
T1 sequence (P04062 40-536 N409S): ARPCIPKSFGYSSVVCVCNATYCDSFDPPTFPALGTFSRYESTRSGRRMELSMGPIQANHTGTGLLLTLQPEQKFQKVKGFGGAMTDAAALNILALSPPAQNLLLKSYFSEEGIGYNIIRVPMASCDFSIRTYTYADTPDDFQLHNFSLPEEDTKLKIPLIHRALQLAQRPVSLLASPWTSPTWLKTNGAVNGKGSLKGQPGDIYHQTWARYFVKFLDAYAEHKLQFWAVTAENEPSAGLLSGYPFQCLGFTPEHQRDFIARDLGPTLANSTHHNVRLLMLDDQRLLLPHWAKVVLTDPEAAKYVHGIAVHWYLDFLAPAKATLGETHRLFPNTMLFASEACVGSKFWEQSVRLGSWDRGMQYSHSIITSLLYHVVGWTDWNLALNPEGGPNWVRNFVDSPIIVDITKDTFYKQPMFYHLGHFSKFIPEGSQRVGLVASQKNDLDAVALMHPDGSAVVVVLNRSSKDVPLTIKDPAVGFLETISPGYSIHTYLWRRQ

almond β-galactosidase = settings: cited from earlier work

## OC[C@H]1CNC[C@@H](O)[C@@H]1O [compound 33, isofagomine]
[1]; N370S/N370S, 1-50 μM in the culture medium, FIG. 8A
  increase of intracellular β-Glu activity in Gaucher fibroblasts: 55-80%
[1]; N370S/N370S, day 1 or 2, FIG. 8B
  residual β-Glu activity in Gaucher cells, time course: did not change
[1]; N370S/N370S, day 5, FIG. 8B
  increase of β-Glu activity in Gaucher cells, time course: more than 80%
[1]; N370S/N370S, higher than 50 μM
  β-Glu enhancement effect at high concentration: nullified the enhancement effect
[1]; concentration ranges of 0.05-100 μM
  intracellular β-Glu activity in Gaucher fibroblasts (summary): effectively enhance
Almond β-galactosidase
  inhibition of almond β-galactosidase (in words): potent inhibitor
